This passage reports EC50 and IC50 results from patent US8178530B2, “Imidazolopyrazine compounds useful for the treatment of degenerative and inflammatory diseases” (Janssen Pharmaceutica NV, priority 2006, dated 2012).

Assay [1] relates to TNFα release by human PBMCs. As to the kind of experiment: Cytokine release by LPS-stimulated human PBMCs (TNFα ELISA). It counts as cell-based. The conditions noted are these: LPS 1 μg/mL, 24 hr. A digest of the protocol: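 Human PBMCs at 2.5E6 cells/mL preincubated 1 h with compound (0.2% DMSO final), then stimulated with 1 μg/mL LPS (E. coli 026:B6) for 24 h. Supernatant TNFα measured by chemiluminescent sandwich ELISA; percent inhibition normalised to LPS/vehicle and unstimulated controls, EC50 fitted from 8-point 1/3 dilutions.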

The next assay addresses T1, MAPKAPK5 (Homo sapiens, UniProt Q8IW41).
T1 construct: 1 mU MAPKAP-K5
T1 sequence (Q8IW41 1-473): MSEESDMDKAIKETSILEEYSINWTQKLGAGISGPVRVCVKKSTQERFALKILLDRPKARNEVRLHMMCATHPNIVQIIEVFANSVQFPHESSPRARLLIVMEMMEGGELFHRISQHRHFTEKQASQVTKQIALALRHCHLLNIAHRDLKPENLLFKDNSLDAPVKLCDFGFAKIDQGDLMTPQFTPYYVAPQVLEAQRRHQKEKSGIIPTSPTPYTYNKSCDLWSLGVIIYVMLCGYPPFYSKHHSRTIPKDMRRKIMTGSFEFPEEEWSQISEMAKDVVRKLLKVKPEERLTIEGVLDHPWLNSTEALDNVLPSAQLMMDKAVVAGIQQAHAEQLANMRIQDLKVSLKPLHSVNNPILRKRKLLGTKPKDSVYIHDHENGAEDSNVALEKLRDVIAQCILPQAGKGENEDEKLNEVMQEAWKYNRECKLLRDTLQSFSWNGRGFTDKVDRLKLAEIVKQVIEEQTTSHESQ
As to the kind of experiment: MAPKAP-K5 assay (FlashPlate, 33P-ATP). It counts as biochemical. The settings on record: 0.6 μM ATP, 30 minutes at room temperature. On the procedure:
3 μM MAPKAP-K5 peptide substrate

pEC50, pIC50: −log10 of the molar value. Like-named read-outs stand apart in the source and are kept apart here.

The molecule `CN1CCN(c2ccc(Nc3ncc(-c4cc(C(N)=O)cs4)n4ccnc34)cc2)CC1` [Compound 145, 5-{8-[4-(4-Methyl-piperazin-1-yl)-phenylamino]-imidazo[1,2-a]pyrazin-5-yl}-thiophene-3-carboxylic acid amide] gave a negative logarithm of the EC50 (pEC50) in assay [1] (PBMC) of under 6.00. On MAPKAPK5, this molecule gave a pIC50 of under 6.00.

`O=C(NCCN1CCOCC1)c1ccc(Nc2ncc(-c3cn[nH]c3)n3ccnc23)cc1` [Compound 53] gave a pEC50 in assay [1] (PBMC) of under 6.00. This molecule showed a pIC50 at MAPKAPK5 of 6.30 to 7.00.

The molecule `CCNCCNC(=O)c1ccc(Nc2ncc(-c3cn[nH]c3)n3ccnc23)cc1` [Compound 56] gave a pEC50 in assay [1] (PBMC) of under 6.00. This molecule gave a pIC50 on MAPKAPK5 of 6.30 to 7.00.

As for `NC(=O)c1ccc(Nc2ncc(-c3cn[nH]c3)n3ccnc23)cc1` [Compound 11], in assay [1] (PBMC), the pEC50 is under 6.00. The molecule further showed a pIC50 against MAPKAPK5 of 6.30 to 7.00.

With “4-(8-{4-[1-(2,2,2-Trifluoroethyl)piperidin-4-yl]phenylamino}imidazo[1,2-a]pyrazin-5-yl)thiophene-2-carboxylic acid amide [Compound 192]”, in assay [1] (read-out: PBMC EC50), the pEC50 is under 6.00. Besides, the pIC50 against MAPKAPK5 is 7.00 to 9.00.

Regarding `CC(C)N1CCN(c2ccc(Nc3ncc(-c4ccc5c(c4)CNC5=O)n4ccnc34)cn2)CC1` [Compound 210, 5-{8-[6-(4-Isopropyl-piperazin-1-yl)-pyridin-3-ylamino]-imidazo[1,2-a]pyrazin-5-yl}-2,3-dihydro-isoindol-1-one], the pEC50 in assay [1] (PBMC) was under 6.00. The pIC50 against MAPKAPK5 was 7.00 to 9.00.

For `C[C@@H]1CN(c2ccc(Nc3ncc(-c4ccc(C(N)=O)cc4)n4ccnc34)cc2)C[C@H](C)N1C` [Compound 155], the pEC50 in assay [1] (PBMC) is under 6.00. The pIC50 against MAPKAPK5 was under 6.00.

On to `CN1CCC(NC(=O)c2ccc(Nc3ncc(-c4cn[nH]c4)n4ccnc34)cc2)C1` (stereo not shown) [Compound 64], for which the pEC50 in assay [1] (PBMC) is under 6.00. The molecule also had a pIC50 at MAPKAPK5 of 6.30 to 7.00.

For `O=C1NCc2cc(-c3cnc(Nc4cccnc4)c4nccn34)ccc21` [Compound 197], the pEC50 in assay [1] (PBMC) was under 6.00. For the same molecule, the pIC50 against MAPKAPK5 is 6.30 to 7.00.

Molecule `CN1CCC(COc2ccc(Nc3ncc(-c4ccc(C(N)=O)c(F)c4)n4ccnc34)cc2)CC1` [Compound 159, 2-Fluoro-4-{8-[4-(1-methyl-piperidin-4-ylmethoxy)-phenylamino]-imidazo[1,2-a]pyrazin-5-yl}-benzamide] had a pEC50 in assay [1] (PBMC) of under 6.00. Further, the pIC50 on MAPKAPK5 was under 6.00.

`CN1CCN(c2ccc(Nc3ncc(-c4cscn4)n4ccnc34)cc2)CC1` [Compound 138] had a pEC50 in assay [1] (PBMC) of 6.30 to 7.00. On MAPKAPK5, this molecule showed a pIC50 of under 6.00.

Molecule `CCN(CC)CCNC(=O)c1ccc(Nc2ncc(-c3cn[nH]c3)n3ccnc23)c(F)c1` [Compound 83] gave a negative-log EC50 (pEC50) in assay [1] (PBMC) of under 6.00. Besides, the pIC50 on MAPKAPK5 was 6.30 to 7.00.

As to `Cn1cnnc1-c1ccc(Nc2ncc(-c3ccc(C(N)=O)cc3)n3ccnc23)cc1` [Compound 141], the pEC50 in assay [1] (PBMC) was under 6.00. Moreover, on MAPKAPK5, the pIC50 is under 6.00.

The molecule `CN1CCN(c2ccc(Nc3ncc(-c4ccc(C(N)=O)c(Cl)c4)n4ccnc34)cc2)CC1` [Compound 124] had a pEC50 in assay [1] (PBMC) of 6.00 to 6.30. The molecule further had a pIC50 against MAPKAPK5 of under 6.00.

In assay [1] (PBMC), `NC(=O)c1ccc(-c2cnc(Nc3ccc(-n4ccnc4)cc3)c3nccn23)cc1` [Compound 167] gave a pEC50 of 7.00 to 9.00. For the same molecule, the pIC50 against MAPKAPK5 is under 6.00.

In assay [1] (PBMC), `NC(=O)c1ccc(-c2cnc(Nc3ccc(-c4cccnc4)cc3)c3nccn23)cc1` [Compound 153] showed a pEC50 of 7.00 to 9.00. Further, on MAPKAPK5, the negative-log IC50 (pIC50) was under 6.00.

Take `c1cn(-c2ccc(Nc3ncc(-c4cn[nH]c4)n4ccnc34)cc2)cn1` [Compound 168, (4-Imidazol-1-yl-phenyl)-[5-(1H-pyrazol-4-yl)-imidazo[1,2-a]pyrazin-8-yl]-amine]: the pEC50 in assay [1] (PBMC) is under 6.00. The molecule also showed a pIC50 at MAPKAPK5 of under 6.00.

With `CN(C)c1ccc(CNC(=O)c2ccc(Nc3ncc(-c4cn[nH]c4)n4ccnc34)cc2)cc1` [Compound 89], the pEC50 in assay [1] (PBMC) was under 6.00. At MAPKAPK5, this molecule gave a pIC50 of under 6.00.

Molecule `O=C(NCc1cccnc1)c1ccc(Nc2ncc(-c3cn[nH]c3)n3ccnc23)cc1` [Compound 35] showed a pEC50 in assay [1] (PBMC) of 6.00 to 6.30. Besides, the pIC50 at MAPKAPK5 is 6.00 to 6.30.

The molecule `CS(=O)(=O)c1ccc(Nc2ncc(-c3cn[nH]c3)n3ccnc23)cc1` [Compound 71] had a pEC50 in assay [1] (PBMC) of under 6.00. The same molecule gave a pIC50 at MAPKAPK5 of 6.30 to 7.00.

For `CCN(CC)CCNC(=O)c1ccc(Nc2ncc(-c3cn[nH]c3)n3ccnc23)cc1F` [Compound 82], the pEC50 in assay [1] (PBMC) is under 6.00. On MAPKAPK5, this molecule showed a pIC50 of 6.00 to 6.30.

In assay [1] (PBMC), `CN1CCN(c2ccc(Nc3ncc(-c4ccnc(F)c4)n4ccnc34)cc2)CC1` [Compound 125, [5-(2-Fluoro-pyridin-4-yl)-imidazo[1,2-a]pyrazin-8-yl]-[4-(4-methyl-piperazin-1-yl)-phenyl]-amine] gave a negative-log EC50 (pEC50) of under 6.00. The molecule also gave a pIC50 on MAPKAPK5 of under 6.00.

Take `CC(C)N1CCN(c2ccc(Nc3ncc(-c4ccc(C(N)=O)cc4)n4ccnc34)cc2)CC1` [Compound 142]: in assay [1] (PBMC), the pEC50 was under 6.00. At MAPKAPK5, this molecule showed a pIC50 of under 6.00.

In assay [1] (PBMC), `NC(=O)c1ncc(-c2cnc(Nc3ccc(N4CCOCC4)cc3)c3nccn23)s1` [Compound 173, 5-[8-(4-Morpholin-4-yl-phenylamino)-imidazo[1,2-a]pyrazin-5-yl]-thiazole-2-carboxylic acid amide] gave a pEC50 of under 6.00. The molecule further gave a negative-log IC50 (pIC50) on MAPKAPK5 of under 6.00.

`CC(C)N1CCN(c2ccc(Nc3ncc(-c4cc(F)c(C(N)=O)c(F)c4)n4ccnc34)cc2)CC1` [Compound 193] gave a pEC50 in assay [1] (PBMC) of under 6.00. The molecule also showed a pIC50 on MAPKAPK5 of 6.00 to 6.30.

For the molecule `CN(C)Cc1cc(Nc2ncc(-c3cn[nH]c3)n3ccnc23)ccc1N1CCOCC1` [Compound 218, (3-Dimethylaminomethyl-4-morpholin-4-yl-phenyl)-[5-(1H-pyrazol-4-yl)-imidazo[1,2-a]pyrazin-8-yl]-amine], the pEC50 in assay [1] (PBMC) is under 6.00. The pIC50 on MAPKAPK5 is under 6.00.

Regarding `CCN(CC)CCNS(=O)(=O)c1ccc(Nc2ncc(-c3cn[nH]c3)n3ccnc23)cc1` [Compound 69, N-(2-Diethylaminoethyl)-4-[5-(1H-pyrazol-4-yl)imidazo[1,2-a]pyrazin-8-ylamino]benzenesulfonamide], the pEC50 in assay [1] (PBMC) is 6.00 to 6.30. For the same molecule, the pIC50 at MAPKAPK5 is 6.30 to 7.00.

In turn, `CN1CCN(c2ccc(Nc3ncc(-c4ccc(C(N)=O)cc4)n4ccnc34)cc2F)CC1` [Compound 171, 4-{8-[3-Fluoro-4-(4-methyl-piperazin-1-yl)-phenylamino]-imidazo[1,2-a]pyrazin-5-yl}-benzamide] had a pEC50 in assay [1] (PBMC) of under 6.00. This molecule showed a pIC50 on MAPKAPK5 of under 6.00.

Turning to `Cc1[nH]ncc1-c1cnc(Nc2ccc(N3CCOCC3)cc2)c2nccn12` [Compound 176], the pEC50 in assay [1] (PBMC) was under 6.00. Also, the pIC50 on MAPKAPK5 was 6.00 to 6.30.

Consider `c1cn2c(-c3cn[nH]c3C3CC3)cnc(Nc3ccc(N4CCOCC4)cc3)c2n1` [Compound 160, [5-(5-Cyclopropyl-1H-pyrazol-4-yl)-imidazo[1,2-a]pyrazin-8-yl]-(4-morpholin-4-yl-phenyl)-amine], for which the pEC50 in assay [1] (PBMC) was under 6.00. The molecule further gave a pIC50 against MAPKAPK5 of 6.30 to 7.00.

In assay [1] (PBMC), `CN1CCN(c2ccc(Nc3ncc(-c4ccc(C(N)=O)cc4)n4ccnc34)cc2Cl)CC1` [Compound 136, 4-{8-[3-Chloro-4-(4-methyl-piperazin-1-yl)-phenylamino]-imidazo[1,2-a]pyrazin-5-yl}-benzamide] gave a pEC50 of 6.30 to 7.00. The molecule also showed a pIC50 on MAPKAPK5 of 6.30 to 7.00.

Molecule `CN1CCN(c2ccc(Nc3ncc(-c4cn[nH]c4)n4ccnc34)cc2)CC1` [Compound 14] gave a pEC50 in assay [1] (PBMC) of under 6.00. At MAPKAPK5, this molecule showed a pIC50 of under 6.00.

Turning to `NC(=O)c1cnc(-c2cnc(Nc3ccc(N4CCOCC4)cc3)c3nccn23)s1` [Compound 158, 2-[8-(4-Morpholin-4-yl-phenylamino)-imidazo[1,2-a]pyrazin-5-yl]-thiazole-5-carboxylic acid amide], in assay [1] (PBMC), the pEC50 is 6.30 to 7.00. Further, the pIC50 on MAPKAPK5 is under 6.00.

Regarding `C[C@@H]1CN(c2ccc(Nc3ncc(-c4cc(C(N)=O)co4)n4ccnc34)cc2)[C@@H](C)CN1C` [Compound 187], in assay [1] (PBMC), the pEC50 was under 6.00. The molecule further had a pIC50 against MAPKAPK5 of 7.00 to 9.00.

`CN1CCN(c2ccc(Nc3ncc(-c4cc(C(N)=O)co4)n4ccnc34)cc2)CC1` [Compound 151] showed a pEC50 in assay [1] (PBMC) of under 6.00. Further, the pIC50 against MAPKAPK5 was 7.00 to 9.00.

As to `CC(C)N1CCN(c2ccc(Nc3ncc(-c4coc(C(N)=O)c4)n4ccnc34)cc2)CC1` [Compound 204, 4-{8-[4-(4-Isopropyl-piperazin-1-yl)-phenylamino]-imidazo[1,2-a]pyrazin-5-yl}-furan-2-carboxylic acid amide], the pEC50 in assay [1] (PBMC) was under 6.00. On MAPKAPK5, this molecule had a pIC50 of 6.30 to 7.00.

`c1cn2c(-c3cn[nH]c3)cnc(Nc3ccc(OCCN4CCOCC4)cc3)c2n1` [Compound 150, [4-(2-Morpholin-4-yl-ethoxy)-phenyl]-[5-(1H-pyrazol-4-yl)-imidazo[1,2-a]pyrazin-8-yl]-amine] showed a pEC50 in assay [1] (PBMC) of under 6.00. This molecule had a pIC50 against MAPKAPK5 of 6.00 to 6.30.

As to `CC(C)N1CCN(c2ccc(Nc3ncc(-c4ccc5c(c4)CNC5=O)n4ccnc34)cc2)CC1` [Compound 205, 5-{8-[4-(4-Isopropyl-piperazin-1-yl)-phenylamino]-imidazo[1,2-a]pyrazin-5-yl}-2,3-dihydro-isoindol-1-one], the pEC50 in assay [1] (PBMC) is under 6.00. This molecule had a pIC50 against MAPKAPK5 of 7.00 to 9.00.

Usually pEC50 stands for −log10 of the EC50, conventionally taken in molar units. Broadly, the pIC50 is the IC50 on a negative log10 scale, so that one unit is a factor of ten. A high value points to a low IC50.
